Biological target: T1, Renilla luciferase 8 (RLuc8) (Renilla reniformis, UniProt P27652, A55T/C124A/S130A/K136R/A143M/M185V/M253L/S287L)
T1 construct: RLuc8 in pcDNA3.1(+), stably expressed in MDA-MB231 cells
T1 sequence (P27652 1-311 A55T/C124A/S130A/K136R/A143M/M185V/M253L/S287L): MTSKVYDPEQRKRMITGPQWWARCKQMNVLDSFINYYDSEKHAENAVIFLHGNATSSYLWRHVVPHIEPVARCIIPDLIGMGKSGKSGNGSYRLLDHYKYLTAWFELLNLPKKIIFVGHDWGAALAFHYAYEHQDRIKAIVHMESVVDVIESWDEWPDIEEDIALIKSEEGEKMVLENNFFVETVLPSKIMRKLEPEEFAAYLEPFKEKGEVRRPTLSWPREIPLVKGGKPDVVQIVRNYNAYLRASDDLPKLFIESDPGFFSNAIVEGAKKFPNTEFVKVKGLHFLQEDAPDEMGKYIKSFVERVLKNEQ
Experiment: bioluminescence imaging of MDA-MB231 cells expressing the luciferase
Assay type: cell-based
Conditions: stable cells

Oc1ccc(Cc2nc3c(Cc4ccccc4)nc(-c4ccc(O)cc4)cn3c2O)cc1 [nCTZ]
bioluminescence imaging of MDA-MB231 cells expressing the luciferase: exhibited the brightest signal when reacted with nCTZ

From article PMC10098686, “Bright Molecular Strain Probe Templates for Reporting Protein–Protein Interactions” (Sensors (Basel, Switzerland), 2023)
